≈ marks a conversion by molar mass, not a printed value.
Assays:
Experiment in all cases: MIC testing, broth microdilution in CAMHB
Type in all cases: cell-based
[1] = system: Salmonella typhimurium, CMCC 50115; conditions: 37° C., 18-20 hr, lowest concentration that completely inhibits visible growth; for MIC: Salmonella enterica, read-out: Compound MICs, Salmonella typhimurium, CMCC 50115
Procedure: (§1) Compounds 1-71 were subsequently tested to determine MICs of the compounds relative to the following five species/strains of bacteria: Staphylococcus aureus, NRS384; Enterococcus faecalis, ATCC 51575; Salmonella typhimurium, CMCC 50115; Escherichia coli, ATCC BAA-198; and Acinetobacter baumannii, ATCC 17978. MIC testing of compounds was conducted according to the following protocol.
(§2) For each strain to be tested, made fresh streaks onto CAMHA from −80° C. glycerol stocks.
(§3) • CAMHB: Dissolved 22 g of the powder per 1 L of purified water. Mixed well. Autoclaved at 121° C. for 10 minutes. Stored at room temperature (RT) for no more than 1 week. • Saline: Dissolved 9 g of the powder per 1 L of purified water. Mixed well. Autoclaved at 121° C. for 30 minutes. Stored at room temperature (RT) for no more than 1 week.
(§4) Prepared the stock solutions of the tested compounds.
(§5) For compounds: • a) Dispensed 20 ul compound to the wells in column 1, and 20 ul DMSO to the wells in column 2 to 12; • b) Diluted the compounds by transferring 10 ul compounds from column 1 to 20 ul DMSO in column 2; mix with pipette. • c) Repeated until column 11 to get 3×serial dilutions. Column 12 was the DMSO control.
(§6) A multichannel pipette was used to deliver 1 μl of the diluted compound into each well of the corresponding daughter plate.
(§7) Scraped 4-8 single colonies from an agar plate into 5 ml saline in a 14 ml Falcon conical tube. Vortexed the tube to suspend the bacteria. Adjusted the turbidity to ˜0.2 (corresponding to 0.5 McFarland) with an Ultrospec 10 Cell density meter.
(§8) The strain suspension was diluted 200-fold in CAMHB medium and dispense into a sterile reservoir. A multichannel pipette was then used to deliver 99 μl of the diluted inocula into each well of the corresponding daughter plate.
(§9) Incubate the daughter plates at 37° C., 85% humidity for 18-20 hr.
(§10) A magnifying mirror device was used for ease of scoring the presence or absence of growth in the wells. 96-well micro-plates were photographed.

[2] = system: Staphylococcus aureus, NRS384; conditions: 18-20 hr, lowest concentration that completely inhibits visible growth; for Compound MICs, Staphylococcus aureus, NRS384: 37° C.; for MIC: Staphylococcus aureus, NRS384, 37° C., read-out: Compound MICs, Staphylococcus aureus, NRS384
Procedure: as §1, §2, §3, §4, §5, §6, §7, §8, §9, §10

[3] = system: Enterococcus faecalis, ATCC 51575; conditions: 18-20 hr, lowest concentration that completely inhibits visible growth; for Compound MICs, Enterococcus faecalis, ATCC 51575: 37° C.; for MIC: Enterococcus faecalis, ATCC51575, 37° C., read-out: Compound MICs, Enterococcus faecalis, ATCC 51575
Procedure: as §1, §2, §3, §4, §5, §6, §7, §8, §9, §10

[4] = system: Acinetobacter baumannii, ATCC 17978; conditions: 18-20 hr, lowest concentration that completely inhibits visible growth; for Compound MICs, Acinetobacter baumannii, ATCC 17978: 37° C.; for MIC: Acinetobacter baumannii, ATCC17978, 37° C., read-out: Compound MICs, Acinetobacter baumannii, ATCC 17978
Procedure: as §1, §2, §3, §4, §5, §6, §7, §8, §9, §10

[5] = system: Escherichia coli, ATCC BAA-198; conditions: 18-20 hr, lowest concentration that completely inhibits visible growth; for Compound MICs, Escherichia coli, ATCC BAA-198: 37° C.; for MIC: Escherichia coli, ATCCBAA198, 37° C., read-out: Compound MICs, Escherichia coli, ATCC BAA-198
Procedure: as §1, §2, §3, §4, §5, §6, §7, §8, §9, §10

SMILES | Compound MICs, Salmonella typhimurium, CMCC 50115 [1] [µg/mL] | Compound MICs, Staphylococcus aureus, NRS384 [2] [µg/mL] | Compound MICs, Enterococcus faecalis, ATCC 51575 [3] [µg/mL] | Compound MICs, Acinetobacter baumannii, ATCC 17978 [4] [µg/mL] | Compound MICs, Escherichia coli, ATCC BAA-198 [5] [µg/mL] | MIC [1] [µg/mL] | MIC [2] [µg/mL] | MIC [3] [µg/mL] | MIC [4] [µg/mL] | MIC [5] [µg/mL]
Nc1nc(N)c2c(n1)c(-c1cccnc1)cc1c2ccn1Cc1ccc(F)cc1 [Compound 43] | 2.37 | 2.37 | 0.09 | 64 | 64 | – | – | – | – | –
Nc1nc(N)c2c(ccc3c2ccn3Cc2ccc3c(c2)OCO3)n1 [Compound 69] | 0.26 | 0.09 | 0.03 | 7.11 | 2.37 | – | – | – | – | –
Nc1nc(N)c2c(ccc3c2ccn3Cc2csc(C(F)(F)F)n2)n1 [Compound 60] | 0.79 | 0.79 | 0.09 | 21.3 | 7.11 | – | – | – | – | –
N#Cc1cncc(Cn2ccc3c4c(N)nc(N)nc4ccc32)c1 [Compound 53] | 0.26 | 0.26 | 0.26 | 64 | 21.3 | – | – | – | – | –
Nc1nc(N)c2c(ccc3c2ccn3CC2CCCC2)n1 [Compound 11] | – | – | – | – | – | 0.79 (≈ 2.81 µM) | 0.088 (≈ 0.313 µM) | 0.03 (≈ 0.107 µM) | 7.11 (≈ 25.3 µM) | 21.3 (≈ 75.7 µM)
Nc1nc(N)c2c(ccc3c2ccn3Cc2ccnc(F)c2)n1 [Compound 56] | 0.03 | 0.03 | 0.01 | 2.37 | 7.11 | – | – | – | – | –
Nc1nc(N)c2c(n1)c(C1CC1)cc1c2ccn1Cc1ccc(F)cc1 [Compound 49] | 2.37 | 2.37 | 0.26 | >64 | >64 | – | – | – | – | –
C=C(Cn1ccc2c3c(N)nc(N)nc3c(Br)cc21)C(=O)OC [Compound 54] | 21.3 | 2.37 | 0.003 | 64 | >64 | – | – | – | – | –
C=C(Cn1ccc2c3c(N)nc(N)nc3ccc21)C(=O)OC [Compound 62] | 0.26 | 0.79 | 0.003 | 21.3 | 21.3 | – | – | – | – | –
CC(C)(C)OC(=O)NCC#Cc1ccc(Cn2ccc3c4c(N)nc(N)nc4ccc32)cc1 [Compound 16] | 21.3 | 0.79 | 0.09 | >64 | >64 | – | – | – | – | –
Nc1nc(N)c2ccc(NCc3ccc(F)cc3)cc2n1 [Compound 64] | 64 | 7.11 | 21.3 | >64 | 64 | – | – | – | – | –
Nc1nc(N)c2c(ccc3c2ccn3CCc2ccc(F)cc2)n1 [Compound 39] | 2.37 | 0.79 | 0.09 | 21.3 | 7.11 | – | – | – | – | –
COc1cc(Cn2ccc3c4c(N)nc(N)nc4ccc32)cc(OC)c1OC [Compound 71] | – | – | – | – | – | 0.79 (≈ 2.08 µM) | 0.03 (≈ 0.0791 µM) | 0.01 (≈ 0.0264 µM) | 7.11 (≈ 18.7 µM) | 2.37 (≈ 6.25 µM)
C#Cc1ccc(Cn2ccc3c4c(N)nc(NC5CC5)nc4ccc32)cc1 [Compound 9] | – | – | – | – | – | 2.37 (≈ 6.71 µM) | 0.79 (≈ 2.24 µM) | 0.26 (≈ 0.736 µM) | 21.3 (≈ 60.3 µM) | 21.3 (≈ 60.3 µM)
Nc1nc(N)c2c(ccc3c2ccn3CC#Cc2ccccc2)n1 [Compound 3] | – | – | – | – | – | 0.79 (≈ 2.52 µM) | 0.26 (≈ 0.83 µM) | 0.03 (≈ 0.0957 µM) | 7.11 (≈ 22.7 µM) | 7.11 (≈ 22.7 µM)
COc1ccc(Br)cc1Cn1ccc2c3c(N)nc(N)nc3ccc21 [Compound 70] | – | – | – | – | – | 0.26 (≈ 0.653 µM) | 0.01 (≈ 0.0251 µM) | ≤ 0.001 | 2.37 (≈ 5.95 µM) | 2.37 (≈ 5.95 µM)
CC#Cc1ccc(Cn2ccc3c4c(N)nc(NC5CC5)nc4ccc32)cc1 [Compound 18] | 7.11 | 2.37 | 0.79 | 21.3 | 21.3 | – | – | – | – | –
Nc1nc(N)c2c(ccc3c2ccn3C/C=C/c2ccccc2)n1 [Compound 4] | – | – | – | – | – | 0.79 (≈ 2.5 µM) | 0.03 (≈ 0.0951 µM) | 0.03 (≈ 0.0951 µM) | 7.11 (≈ 22.5 µM) | 7.11 (≈ 22.5 µM)

The next lines start with the values.

Compound MICs, Salmonella typhimurium, CMCC 50115 [1] [µg/mL] | Compound MICs, Staphylococcus aureus, NRS384 [2] [µg/mL] | Compound MICs, Enterococcus faecalis, ATCC 51575 [3] [µg/mL] | Compound MICs, Acinetobacter baumannii, ATCC 17978 [4] [µg/mL] | Compound MICs, Escherichia coli, ATCC BAA-198 [5] [µg/mL] | MIC [1] [µg/mL] | MIC [2] [µg/mL] | MIC [3] [µg/mL] | MIC [4] [µg/mL] | MIC [5] [µg/mL] | SMILES
0.26 | 0.09 | 0.03 | 2.37 | 7.11 | – | – | – | – | – | Nc1nc(N)c2c(ccc3c2ccn3Cc2ccc(-c3ccccc3)cn2)n1 [Compound 58]
– | – | – | – | – | 0.79 (≈ 2.07 µM) | 0.26 (≈ 0.682 µM) | 0.03 (≈ 0.0786 µM) | 7.11 (≈ 18.6 µM) | 7.11 (≈ 18.6 µM) | Nc1nc(N)c2c(ccc3c2ccn3Cc2cccc(Oc3ccccc3)c2)n1 [Compound 5]
0.26 | 0.09 | 0.03 | 7.11 | 7.11 | – | – | – | – | – | Nc1nc(N)c2c(ccc3c2ccn3Cc2ccc(-c3ccccn3)cc2)n1 [Compound 61]
0.26 | 0.26 | 0.03 | 7.11 | 2.37 | – | – | – | – | – | C=Cc1ccc(Cn2ccc3c4c(N)nc(N)nc4ccc32)cc1 [Compound 33]
0.26 | 0.09 | 0.09 | 2.37 | 2.37 | – | – | – | – | – | Nc1nc(N)c2c(ccc3c2ccn3Cc2ccc3ccccc3c2)n1 [Compound 26]
0.26 | 0.79 | 0.26 | 64 | 7.11 | – | – | – | – | – | NCC#Cc1ccc(Cn2ccc3c4c(N)nc(N)nc4ccc32)cc1 [Compound 24]
7.11 | 0.09 | 0.03 | 64 | 7.11 | – | – | – | – | – | Nc1nc(N)c2c(ccc3c2ccn3Cc2ccc(Br)c3ccccc23)n1 [Compound 44]
0.79 | 0.03 | 0.01 | 7.11 | 7.11 | – | – | – | – | – | Cc1ccc(Cn2ccc3c4c(N)nc(N)nc4ccc32)c2ccccc12 [Compound 42]

— US20230295164A1, “COMPOUNDS HAVING ANTIBACTERIAL ACTIVITY” (The Trustees of Princeton University, priority 2020, published 2023)
